Assay results from US20060286054A1, “PHARMACEUTICAL COMPOSITIONS FOR THE TREATMENT OF PSORIASIS” (Apollo Pharmaceutical, Inc., priority 2005, published 2006).
Several values for one entry are separate records, joined by “and”; a condition that tells them apart may be missing. Equal values may be shown once.

Columns and labels:
[1] = tested on: THP-1 cells; experiment: MTT assay of THP-1 cell proliferation; format: cell-based; details: titration
Protocol: THP-1 cells were sub-cultured in 96 well culture plates at a density of 20,000 cells/well. LPS (100 ng/ml) and titrating amounts of Psorberine and/or Calcipotriol were then added to triplicate wells. The cells were cultured for 5 days, at which point the culture plates were centrifuged, the culture media removed and saved, and fresh media containing 0.863 mg/ml MTT added. After culturing for an additional 4 h, the plates were centrifuged again, the media removed from the formazan crystals and the well contents solubilized in DMSO. The absorbance of each well at 560 nm was measured. The data were normalized to the averaged results of the control wells receiving water. The culture supernatants were tested in ELISA (Bio-Source, International) for IL-8, TNF-α and IL-1β content. The effect of Psorberine on THP-1 cell proliferation was examined. […] The increase in the percentage of control seen in the MTT assay at the high concentrations of Psorberine (1:10 and 1:20 dilutions), is most probably due to the strong coloring of the compound (dark green). There is a very high OD recovered from MTT assay upon incubating […] cells with these dilutions of Psorberine.

[2] = tested on: Peripheral blood T cell; experiment: T cell proliferation measured by the MTT assay; format: cell-based; details: for MTT % of Control: T cells, W/LPS
Protocol: Twenty ml aliquots of heparinized whole blood were subjected to density gradient centrifugation on Ficoll Hypaque. The buffy coat layers representing peripheral blood mononuclear cells (PBMCs) containing lymphocytes and monocytes were washed once, resuspended in RPMI 1640 containing 10% fetal calf sera and then depleted of B cells and monocytes with a T cell enrichment column (R&D Systems). The T cell preparations were centrifuged, resuspended in 5 ml of incomplete RPMI and counted using a hemocytometer. Aliquots of each cell preparation (40,000 cells in 200 μl of incomplete RPMI) were placed in the wells of 96 well culture plates and cultured overnight at 37° C. under 5% CO2. Twenty five μl of RPMI containing 1 μg/ml PMA and 8 μg/ml ionomycin. After culturing for 24 h, the plates were centrifuged at 1200 rpm for 10 min and the culture supernatants removed and saved. Two hundred μl of complete RPMI containing 0.86 mg/ml MTT was added to each well and the plates cultured for an additional 4 h. The plates were centrifuged again, the media removed and the well contents solubilized in 100% DMSO. The optical density at 560 nm of each well was determined and the averaged mean of the duplicate well calculated. The background OD560 value, determined from control wells receiving media containing no MTT, was subtracted from these values and the data normalized to that of the control wells (0 nM compound). IL-2 secretion by activated T cells was determined in the culture supernatants of these cells. The supernatants were assessed using the R&D Biosystems ELISA kit for human IL-2.

[3] = tested on: IL-2; experiment: IL-2 release from THP-1 cells; format: cell-based; details: titration curve centered at ˜5 nM
[4] = tested on: IL-2; experiment: IL-2 secretion by peripheral blood T cells activated with PMA plus ionomycin (ELISA); format: cell-based, human; details: 24 h, between 0.01-10 nM
Protocol: Twenty ml aliquots of heparinized whole blood were subjected to density gradient centrifugation on Ficoll Hypaque. The buffy coat layers representing peripheral blood mononuclear cells (PBMCs) containing lymphocytes and monocytes were washed once, resuspended in RPMI 1640 containing 10% fetal calf sera and then depleted of B cells and monocytes with a T cell enrichment column (R&D Systems). The T cell preparations were centrifuged, resuspended in 5 ml of incomplete RPMI and counted using a hemocytometer.
Aliquots of each cell preparation (40,000 cells in 200 μl of incomplete RPMI) were placed in the wells of 96 well culture plates and cultured overnight at 37° C. under 5% CO2. […] The optical density at 560 nm of each well was determined and the averaged mean of the duplicate well calculated. The background OD560 value, determined from control wells receiving media containing no MTT, was subtracted from these values and the data normalized to that of the control wells (0 nM compound). IL-2 secretion by activated T cells was determined in the culture supernatants of these cells. The supernatants were assessed using the R&D Biosystems ELISA kit for human IL-2.
The release of IL-2 was also determined 24 h after stimulating peripheral blood T cells with PMA plus ionomycin, in the presence or absence of Psorberine and/or Calcipotriol. […]

[5] = tested on: Jurkat cells; experiment: In vitro chemotaxis assay of Jurkat cells towards SDF-1α; format: cell-based; details: for Cell Number (migrated cells per filter) / Migration Index (MI): filters 1-4
Protocol: Jurakt cells ere grown in cultures in the presence of complete RPMI media. These cells were split one day prior to the assay. More than 99% viable cells were used in the chemotaxis assay. SDF-1α was purchased from Peprotech, Inc.
96 well plate chemotaxis chambers with a pore size of […] (ChemoTx, Neuro Probe, Inc.) were used in this assay. In the lower wells 30 μl of either RPMI plus 0.1% BSA (control), or 30 μl containing 1 μg/ml SDF-1α (positive chemotaxis) were placed. In other wells, 24 μl containing 1 μg/ml SDF-1α was added to 6 μl of media containing the appropriate concentrations of Psorberine, Calcipotriol or their combination. In the upper wells, 20 μl of media containing 20,000 cells (1×10^6/ml) either alone or in combinations with the compounds were placed. After 2 h, the upper part of the filters was washed with coton swaps to remove the non-migrating cells, and the filters were fixed with absolute methanol for 3 minutes. After this, the filters were stained with 15% Giemsa stain for 7.5 min. The filters were washed three times with distilled water, and the cells migrating to the lower wells were counted under light micriscope. For control (cells migrating in the absence of the chemoattractant), 7 filters were used, whereas 4 filters were used in the experimental conditions. Migration Index (MI) was calculated by dividing the number of cells migrating in the experimental filters by the average number of cells migrating in the control filters.

[6] = tested on: Jurkat cells; experiment: Viability of Jurkat cells (Trypan blue exclusion); format: cell-based
Protocol: The chemotaxis assay was corroborated by determining the viability of Jurkat cells. Viability of these cells either incubated in culture medium alone or with Psorberine or Calcipotriol under the same conditions as in the chemotaxis assay, was done by distinguishing dead from viable cells in the Trypan blue exclusion test. Viability of THP-1 cells was determined after incubating these cells with various concentrations of Psorberine for 4 h.

[7] = tested on: keratinocyte; details: Muller et al. 1995; cited from earlier work
[8] = 1 μg/ml SDF-1α + 20 nM Calcipotriol
[9] = 1 μg/ml SDF-1α + 80 nM Calcipotriol
[10] = 1 μg/ml SDF-1α + 160 nM Calcipotriol

**Q.** Which “effect of titrating levels on THP-1 cell proliferation” value [1] does the source give for `C=C1/C(=C\C=C2/CCC[C@]3(C)[C@@H]([C@H](C)/C=C/[C@@H](O)C4CC4)CC[C@@H]23)C[C@@H](O)C[C@@H]1O` [Calcipotriol, calcipotriol] here?
**A.** The value was “multi-phasic, with stimulation seen above concentrations of 1 nM”.

**Q.** What about the “MTT % of Control” value ([2]; concentration 0.050 (unit not given)) of the same compound?
**A.** The value was 109.0164%.

**Q.** And the “MTT % of Control” value ([2]; concentration 0.100 (unit not given))?
**A.** Its value is 88.52%.

**Q.** What about the “MTT % of Control” value ([2]; concentration 0.500 (unit not given)) of the same compound?
**A.** The value was 107.377%.

**Q.** What about the “MTT % of Control” value ([2]; concentration 1.000 (unit not given)) of the same compound?
**A.** Its value is 99.18%.

**Q.** What about the “MTT % of Control” value ([2]; concentration 5.000 (unit not given)) of the same compound?
**A.** Its value is 78.69%.

**Q.** And the “MTT % of Control” value ([2]; concentration 10.000 (unit not given))?
**A.** The value was 116.3934%.

**Q.** And the “MTT % of Control” value ([2]; concentration 50.000 (unit not given))?
**A.** The value was 113.1148%.

**Q.** What about the “MTT % of Control” value ([2]; concentration 100.000 (unit not given)) of the same compound?
**A.** Its value is 83.61%.

**Q.** What about the T cell proliferation ([2]; absence or presence of PMA plus ionomycin) of the same compound?
**A.** The T cell proliferation was “Significant differences in T cell proliferation were not observed”.

**Q.** What about the IL-2 release [3] of the same compound?
**A.** The IL-2 release was “slight increase”.

**Q.** And the “reduction of IL-2 concentration” value [4]?
**A.** The value was 40-50%.

**Q.** What about the “Cell Number (migrated cells per filter)” value [5, 8] of the same compound?
**A.** The value was 240 and 200 and 155 and 170.

**Q.** What about the “Migration Index (MI)” value [5, 8] of the same compound?
**A.** Its value is 5.7 and 4.8 and 3.7 and 4.1.

**Q.** What about the “Cell Number (migrated cells per filter)” value [5, 9] of the same compound?
**A.** The value was 240 and 160 and 180 and 220.

**Q.** What about the “Migration Index (MI)” value [5, 9] of the same compound?
**A.** The value was 5.7 and 3.8 and 4.3 and 5.2.

**Q.** What about the “Cell Number (migrated cells per filter)” value [5, 10] of the same compound?
**A.** Its value is 200 and 198 and 150 and 205.

**Q.** And the “Migration Index (MI)” value [5, 10]?
**A.** The value was 4.8 and 4.7 and 3.6 and 4.9.

**Q.** And the “SDF-1α-induced Jurkat cell chemotaxis” value ([5]; between 20-160 nM)?
**A.** Its value is “did not affect”.

**Q.** And the “# Dead Cells” value ([6]; 20 nM Calcipotriol)?
**A.** Its value is 178.

**Q.** What about the “# Viable Cells” value ([6]; 20 nM Calcipotriol) of the same compound?
**A.** Its value is 18.

**Q.** And the “% Viability” value ([6]; 20 nM Calcipotriol)?
**A.** The value was 91%.

**Q.** What about the “# Dead Cells” value ([6]; 80 nM Calcipotriol) of the same compound?
**A.** Its value is 175.

**Q.** What about the “# Viable Cells” value ([6]; 80 nM Calcipotriol) of the same compound?
**A.** Its value is 17.

**Q.** And the “% Viability” value ([6]; 80 nM Calcipotriol)?
**A.** The value was 91%.

**Q.** What about the “# Dead Cells” value ([6]; 160 nM Calcipotriol) of the same compound?
**A.** The value was 134.

**Q.** And the “# Viable Cells” value ([6]; 160 nM Calcipotriol)?
**A.** Its value is 11.

**Q.** And the “% Viability” value ([6]; 160 nM Calcipotriol)?
**A.** Its value is 92%.

**Q.** For `COc1ccc2cc3[n+](cc2c1OC)CCc1cc2c(cc1-3)OCO2` [berberine], which “keratinocyte growth in vitro” value [7] is on record?
**A.** The value was “inhibits”.
